Patent US20100092479A1, “Compositions and methods for treatment of viral diseases” (CombinatoRx (Singapore) Pte. Ltd., priority 2008, published 2010)
Where a name gives a salt, the structure may show the parent alone. Read-outs that look alike come from different tables or passages of the source.

Key:
[1] = system: Huh7 cells expressing a subgenomic RNA replicon of Con1 (genotype 1b); experiment: HCV replicon assay (luciferase, SteadyLite), Example 1; assay type: cell-based; conditions: single agent; for Emax: read-out: Max Eff (maximum effect, inhibition of viral replication); for IC50: read-out: IC50 (concentration required to achieve 50% inhibition of viral replication)
Description: The HCV replicon assay enables screening of compounds with antiviral activity against HCV viral RNA replication. Huh7 cells expressing a subgenomic RNA replicon of Con1 (genotype 1b) sequence origin and expressing the reporter enzyme luciferase were obtained from ReBLikon, GmBH. In order to perform the assay, replicon cells were seeded on a 384-well plate at 4,000 cells/well in a total volume of 30 μL well. The plated cells were incubated at 37° C., 5% CO2. Pre-diluted compounds at a 10× concentration were added to each well to achieve the desired final concentration. Plates were centrifuged at 900×g, 1 minute following the addition of compounds. Cells were incubated an additional 48 hours or 72 hours at 37° C., 5% CO2. Plates were removed from the incubator 30 minutes to 1 hour prior to the addition of 25 μL/well of SteadyLite luciferase assay reagent from Perkin Elmer in order to equilibrate plates to room temperature. Following the addition of SteadyLite reagent, cells were allowed to incubate for 10 minutes prior to collecting data with a luminometer. Antiviral activity was quantified by the inhibition of luciferase activity.
For screens involving a combination of compounds, a synergy score was calculated by the formula S=log fX log fYΣIdata(Idata−/ILoewe), summed over all non-single-agent concentration pairs, and where log fX,Y are the natural logarithm of the dilution factors used for each single agent. This effectively calculates a volume between the measured and Loewe additive response surfaces, weighted towards high inhibition and corrected for varying dilution factors. […] In general, the magnitude of the synergy score indicates the strength of the synergistic interaction.

[2] = system: HCV genotype 1b subgenomic replicon; experiment: cHTS luciferase assay (viral inhibition) in Huh-luc/neo-ET cells, Experiment 2; assay type: cell-based; conditions: single agent; for IC50: Hepatitis C virus, Huh-luc/neo-ET, replicon luciferase activity, 48 hours, read-out: IC50, HCV replication
Description: (§1) The human hepatoma cell line Huh-7^1 and Huh-luc/neo-ET cells (ReBLikon, GmbH) were maintained in Dulbecco's modified Eagle's medium (DMEM; Gibco Invitrogen) supplemented with 10% Fetal Bovine Serum (FBS, Gibco Invitrogen),1% Penicillin/Streptomycin (Gibco Invitrogen), 1% Gluta MAX-1 (Gibco Invitrogen) and 1% Non-Essential Amino Acids Solution (Gibco Invitrogen) at 37° C., 5% CO2. Huh-luc/neo-ET cells were grown in medium additionally supplemented with 250 ug/ml Geneticin (G418, Gibco Invitrogen). These cells stably express an HCV genotype 1b subgenomic replicon encoding firefly (Photinus pyralis) luciferase, the coding sequence for ubiquitin and neomycin phosphotransferase downstream of the HCV IRES and upstream of an EMCV IRES which mediates translation of downstream viral nonstructural proteins NS3 to NS5B^2. For all experimental procedures Huh-luc/neo-ET and Huh-7 parental cells were seeded in DMEM without phenol red in the absence of G418 and Penicillin/Streptomycin (screening medium).
(§2) Cells were seeded in 30 μl of screening medium at 4000 cells/well on white (Huh-luc/neo-ET cells for viral inhibition assay) or black (Huh7 cells for proliferation inhibition assay) 384-well assay plates (Matrix) and incubated overnight for approximately 20 hours. Using a MiniTrak™ Robotic Liquid Handling System (Perkin-Elmer) 1 μl of compound stock solutions (1000× concentration in DMSO unless otherwise mentioned) in an X (2-fold dilutions of compound horizontally arrayed) or Y (2-fold dilutions of compound vertically arrayed) format was transferred from master plates into 384-well clear bottom plates containing 100 μl screening medium (dilution plates) and mixed thoroughly. From each X and Y dilution plate, 3.3 μl was subsequently transferred to the 384-well assay plates for a final compound dilution of 1:1000 generating a 9×9 (81-point) dose response matrix. The cells were then incubated for 48 hours prior to measuring luciferase activity (viral inhibition) or ATP depletion (proliferation inhibition). 25 μl of SteadyLite (Perkin-Elmer) was added to the white 384-well assay plates and 15 μl of ATPLite (Perkin-Elmer) was added to the black 384-well plates which were subsequently incubated at least 5 minutes before measuring the luminescent signal. All luminescence measurements were assayed for 0.1 sec per well with an EnVision™ Xcite multilabel automatic plate reader with Enhanced Luminescence (Perkin-Elmer) and expressed as the number of relative light units (RLU) detected. Compounds were assayed in duplicate 9×9 dose matrices on each plate and DMSO-only control wells were included as negative untreated controls.
Dose matrices were assembled from replicate combination blocks on experimental 384-well pates. Raw phenotype measurements T from each treated well were converted to normalized measures of inhibitory activity a=−log10(TN) or fractional inhibition I=1−T/V relative to the median V of 20 vehicle-treated wells arranged around the plate. After normalization, we calculated average activity values between replicate measurements at the same treatment doses, along with σ1σ1, the accompanying standard error estimates. Single agent responses were tested at eleven serially-diluted doses and combination data as 9×9 dose matrices each testing all pairs of 8 serially-diluted single agent concentrations along with their single agent doses as a control.
(§3) The resulting impact on viral replication, as measured by replicon luciferase activity, is shown as dose response curves in FIG. 1a. A host proliferation counterscreen measuring cellular ATP levels was assessed in parallel using the Huh7 parental cell line and the data were used to evaluate the selectivity of each probe. All of the compounds tested produced either increases (proviral) or decreases (antiviral) in replicon replication.

[3] = system: Huh7 parental cell line; experiment: Host proliferation counterscreen measuring cellular ATP levels (ATPLite); assay type: cell-based, human
Description: as §1, §2, §3

[4] = system: HMGCR; experiment: HMGCR protein expression by western analysis in Huh7 cells; assay type: cell-based, human; conditions: Huh7 cells treated 16 hrs, GAPDH control
Description: For protein expression analysis, Huh-luc/neo-ET cells were seeded in 4 ml of medium at 250,000 cells per well on 6-well plates and allowed to adhere for 6-8 hours. Stock solutions of compound were added at a 1:1000 dilution and cells were incubated in the presence of compound over 96 hours. Medium and compounds were refreshed once after an initial incubation of 48 hours. Cells were washed in phosphate-buffered saline (PBS, Invitrogen-Gibco) and lysed by the addition of 1× RIPA lysis buffer (0.5 M Tris-HCl, pH 7.4/1.5 M NaCl/2.5% deoxycholic acid/10% NP-40/10 mM EDTA, purchased from Upstate) containing Complete, Mini Protease inhibitor cocktail and PhosSTOP phosphatase inhibitor cocktail tablets (Roche) according to the manufacturer's recommendations. Cell lysates were rocked for 30 minutes at 4° C. and centrifuged at 10,000×g for 10 minutes at 4° C. The protein concentration of each extract was determined by BCA protein assay (Pierce) according to the manufacturer's protocol. […]
To determine the effects of our chemical inhibitors on HMGCR expression, we treated Huh7 cells with the listed concentrations of each chemical for 16 hrs (FIG. 4b). Cell lysates were extracted according to the methods and HMGCR protein expression was analyzed by SDS-PAGE separation and western staining with antibodies specific for HMGCR and GAPDH.

[5] = system: HCV RNA; experiment: HCV RNA copy number by RT-qPCR in Huh-luc/neo-ET cells; assay type: cell-based; conditions: 72 hr treatment
Description: Measurement of HCV RNA levels in response to drug were carried out by first seeding Huh-luc/neo-ET cells in 100 μl of medium at 7,500 cells per well for 72 hour drug treatments and allowed to adhere overnight for approximately 20 hours. Compounds were added at a 1:1000 dilution in duplicate and added to cells in 3 separate experiments. Total RNA was harvested using an RNeasy 96-well kit (Qiagen) according to the manufacturer's protocol and quantified using the Quant-iT™ RiboGreen® RNA Reagent (Invitrogen). Purified RNA (4 μl) was added to TaqMan reactions containing 10 μl of QuantiTect Probe RT-PCR Master Mix (Qiagen) and 0.2 μL, of QuantiTect RT Mix. […] All 20 μl reactions were assayed in an Eppy Twin-Tec skirted PCR plate (Eppendorf) and subjected to quantitative one-step RT-PCR with an Eppendorf Realplex4 qPCR machine (Eppendorf) using the following program: 50° C. for 30 min, 95° C. for 15 min, and 40 cycles of 95° C. for 15 s followed by 60° C. for 1 min 15 s. Absolute quantification of HCV RNA copy number was determined by comparing PCR signals to a standard curve generated from dilutions of a 160 by PCR-amplified fragment of the 5′NTR of HCV. […] All qPCR samples quantified by comparison to the standard curve were subsequently normalized to total RNA per sample to account for variations in sample purification and preparation steps. […]

[6] = single agent, Huh7 parental cells

O=C(c1ccc(Cl)cc1)N1CCC(=Cc2ccc(C3=NCCO3)cc2)CC1 [BIBB-515]
Emax ([1]; Hepatitis C virus, Huh-7): 46%

CCC(C)(C)C(=O)O[C@H]1C[C@@H](C)C=C2C=C[C@H](C)[C@H](CC[C@@H]3C[C@@H](O)CC(=O)O3)[C@H]21 [Simvastatin]
IC50 ([1]; Hepatitis C virus, Huh-7): 14 µM | Emax ([1]; Hepatitis C virus, Huh-7): 71%

Terconazole
Max Eff (maximum effect, inhibition of viral replication) [1]: 95 | IC50 [1]: 1.66 µM

CCC(C)(C)c1ccc(CC(C)CN2C[C@@H](C)O[C@@H](C)C2)cc1 (stereo partly drawn) [amorolfine, Amorolfine]
HCV replication (replicon luciferase activity), result in words [2]: inhibited HCV replication | impact on host cell ATP levels [3, 6]: marginal impact

CC(C)n1c(/C=C/C(O)CC(O)CC(=O)O)c(-c2ccc(F)cc2)c2ccccc21 (stereo not drawn) [Fluvastatin]
IC50 ([1]; Hepatitis C virus, Huh-7): 15.8 µM | Emax ([1]; Hepatitis C virus, Huh-7): 65%

COC(=O)[C@H](CC(C)C)NC(=O)c1ccc(NC[C@@H](N)CS)cc1-c1ccccc1 [GGTI-286]
IC50 ([1]; Hepatitis C virus, Huh-7): 3.7 µM | Emax ([1]; Hepatitis C virus, Huh-7): 79%

O=C([O-])C[C@H](O)C[C@H](O)/C=C/c1c(C2CC2)nc2ccccc2c1-c1ccc(F)cc1.O=C([O-])C[C@H](O)C[C@H](O)/C=C/c1c(C2CC2)nc2ccccc2c1-c1ccc(F)cc1.[Ca+2] [Itavastatin, calcium salt, Itavastatin]
Max Eff (maximum effect, inhibition of viral replication) [1]: 92 | IC50 [1]: 2.3 µM

C=CCN(C)CCCCCCOc1ccc(C(=O)c2ccc(Br)cc2)c(F)c1 [Ro 48-8071]
IC50 [2]: 0.0683 µM | HCV replication (replicon luciferase activity), result in words [2]: inhibited HCV replication | impact on host cell ATP levels [3, 6]: marginal impact | HMGCR protein expression [4]: apparent overexpression | IC50 ([1]; Hepatitis C virus, Huh-7): 0.06 µM | Emax ([1]; Hepatitis C virus, Huh-7): 66%

CC(C)CCCC(C)[C@H]1CC(=O)C2=C3CC[C@H]4C[C@@H](O)CC[C@]4(C)C3CC[C@@]21C (stereo partly drawn) [Colestolone]
HCV replication (replicon luciferase activity), result in words [2]: inhibited HCV replication | impact on host cell ATP levels [3, 6]: marginal impact | IC50 ([1]; Hepatitis C virus, Huh-7): 1.62 µM | Emax ([1]; Hepatitis C virus, Huh-7): 79%

C=C(CC[C@]12O[C@H](C(=O)O)[C@@](O)(C(=O)O)[C@](C(=O)O)(O1)[C@H](OC(=O)/C=C/[C@@H](C)C[C@@H](C)CC)[C@H]2O)[C@@H](OC(C)=O)[C@H](C)Cc1ccccc1 [Squalestatin]
effect on HCV RNA replication (viral RNA copy number normalized to total RNA) [5]: proviral effects

CCN(CC)CCOc1ccc(/C(=C(\Cl)c2ccccc2)c2ccccc2)cc1 [Clomiphene citrate, Clomiphene]
Emax ([1]; Hepatitis C virus, Huh-7): 86%

CCOP(=O)(OCC)C(=Cc1cc(C(C)(C)C)c(O)c(C(C)(C)C)c1)P(=O)(OCC)OCC [SR 12813]
Max Eff (maximum effect, inhibition of viral replication) [1]: 47

Clc1ccccc1CNC[C@H]1CC[C@H](CNCc2ccccc2Cl)CC1 [AY-9944]
IC50 ([1]; Hepatitis C virus, Huh-7): 2.52 µM | Emax ([1]; Hepatitis C virus, Huh-7): 85%

CCCCCCCCCCCCCCOc1ccc(C(=O)O)o1 [TOFA, 5-(tetradecyloxy)-2-furancarboxylic acid]
IC50 ([1]; Hepatitis C virus, Huh-7): 6.25 µM | Emax ([1]; Hepatitis C virus, Huh-7): 95%

CC[C@H](C)C(=O)O[C@H]1C[C@@H](C)C=C2C=C[C@H](C)[C@H](CC[C@@H]3C[C@@H](O)CC(=O)O3)[C@H]21 [Lovastatin]
IC50 ([1]; Hepatitis C virus, Huh-7): 1.64 µM | Emax ([1]; Hepatitis C virus, Huh-7): 102%

C[C@@H](Cc1ccc(C(C)(C)C)cc1)CN1C[C@@H](C)O[C@@H](C)C1 [fenpropimorph, Fenpropimorph]
HCV replication (replicon luciferase activity), result in words [2]: inhibited HCV replication | impact on host cell ATP levels [3]: marginal impact

CCN(CC)CCO[C@H]1CC[C@@]2(C)C(=CC[C@@H]3[C@@H]2CC[C@]2(C)C(=O)CC[C@@H]32)C1 [U18666A]
IC50 [2]: 0.0194 µM | HCV replication (replicon luciferase activity), result in words [2]: inhibited HCV replication | impact on host cell ATP levels [3, 6]: marginal impact | HMGCR protein expression [4]: apparent overexpression

CCC(C)(C)c1ccc(CC(C)CN2C[C@@H](C)O[C@@H](C)C2)cc1 (stereo partly drawn) [Amorolfine hydrochloride, Amorolfine]
IC50 ([1]; Hepatitis C virus, Huh-7): 7.66 µM | Emax ([1]; Hepatitis C virus, Huh-7): 62%

CCCCCCC(=O)CCCCCC/C=C/C[C@@H](O)[C@H](O)[C@@](N)(CO)C(=O)O [Myriocin]
Emax ([1]; Hepatitis C virus, Huh-7): 33%

CCN(CC)CCOc1ccc(C(O)(Cc2ccc(Cl)cc2)c2ccc(C)cc2)cc1 (stereo not drawn) [Triparanol]
IC50 ([1]; Hepatitis C virus, Huh-7): 1.55 µM | Emax ([1]; Hepatitis C virus, Huh-7): 87%

CC[C@H](C)C(=O)O[C@H]1CCC=C2C=C[C@H](C)[C@H](CC[C@@H]3C[C@@H](O)CC(=O)O3)[C@H]21 [Mevastatin]
IC50 ([1]; Hepatitis C virus, Huh-7): 0.6 µM | Emax ([1]; Hepatitis C virus, Huh-7): 101%
